The record followed here is ChEMBL document CHEMBL3046916, “ROLE OF INTERMEDIARY BIOMARKERS IN DETERMINING THE ANTICANCER EFFICACY OF MARINE COMPOUNDS” (2004).

Activity calls are given as the source filed them. The calls are words filed in the database; no cut-off is given here.

Type in all cases: functional
Assay [1] concerns MCF7. The experiment in a line: Increase of benzo[alpha]pyrene-DNA adduct formation in Homo sapiens (human) MCF7 cells at 50 uM treated for 24 hr before benzo[alpha]pyrene addition measured after 24 hr by 32P-postlabeling technique relative to control.
Assay [2] deals with MCF7. The experiment in a line: Decrease of p16 protein expression in Homo sapiens (human) MCF7 cells at 50 uM followed by irradiated with UV after 4 hr by Western blot analysis relative to control. Set-up: scale not given: the % may be the effect or the level left. Background: In western blotting, separated proteins are transferred to a membrane and probed.
The subject of assay [3] is MCF7. The experiment in a line: Decrease of p53 protein expression in Homo sapiens (human) MCF7 cells at 50 uM followed by irradiated with UV after 4 hr by Western blot analysis relative to control. Set-up: scale not given: the % may be the effect or the level left.
For assay [4], the system named is MCF7. The experiment in a line: Inhibition of residual DNA repair ability in Homo sapiens (human) MCF7 cells assessed as plaque forming unit at 50 uM followed by irradiated with 100 Jm'-2 of UV after 24 hr by host cell reactivation assay relative to control.
For assay [5], the system named is MCF7. Description: Inhibition of residual DNA repair ability in Homo sapiens (human) MCF7 cells assessed as plaque forming unit at 50 uM followed by irradiated with 50 Jm'-2 of UV after 24 hr by host cell reactivation assay relative to control.
Assay [6] deals with MCF7. Description: Inhibition of residual DNA repair ability in Homo sapiens (human) MCF7 cells assessed as plaque forming unit at 50 uM followed by irradiated with 200 Jm'-2 of UV after 24 hr by host cell reactivation assay relative to control.
Assay [7] has as its system MCF7. The experiment in a line: Decrease of p21 protein expression in Homo sapiens (human) MCF7 cells at 50 uM followed by irradiated with UV after 4 hr by Western blot analysis relative to control. Set-up: scale not given: the % may be the effect or the level left.
Assay [8] deals with MCF7. The experiment in a line: Increase of benzo[alpha]pyrene-DNA adduct formation in Homo sapiens (human) MCF7 cells at 100 uM treated for 24 hr before benzo[alpha]pyrene addition measured after 24 hr by 32P-postlabeling technique relative to control.

`CC1=C2CC/C(C)=C/CC[C@]3(C)O[C@H]3CC/C(C)=C/[C@@H]2OC1=O` [SARCOPHINE]: the result in assay [1] was inactive. Moreover, the Activity in assay [2] was 96%; in assay [3], 90%; in assay [7], 120%. The “%PFU” value in assay [4] came to 38%; in assay [5], 69%; in assay [6] it was 24%. In addition, the “fold change (FC)” value in assay [8] was determined as 2.
As to `O[C@]12C=C(c3nccc4c3[nH]c3ccccc34)[C@@H]3CCN(CCCC/C=C\CC1)C[C@@]31C[C@@H]3/C=C\CCCCN3[C@H]12` [MANZAMINE A], the “fold change (FC)” value in assay [1] is reported as 2. For the same molecule, the Activity in assay [2] is 89%; in assay [3], 63%; in assay [7], 80%. Further, the “%PFU” value worked out at 15% in assay [4], 46% in assay [5] and 9% in assay [6].
